These are literature values, as cited in patent EP0837672B9, “PREPARATIONS AND METHODS FOR THE TREATMENT OF T CELL MEDIATED DISEASES” (YEDA RESEARCH AND DEVELOPMENT CO. LTD., priority 1995, dated 2005).

The data set concerns mice. The settings on record: administered to mice sc in an oil vehicle such as incomplete Freund's adjuvant (IFA).

As for “p12: peptide corresponding to positions 166-185 of the human hsp60 sequence (EEIAQVATISANGDKEIGNI; UniProt P10809 166-185, looked up, fragment)”, the “peptide therapy for treatment of IDDM” value is “effective”. On to “p32: peptide corresponding to positions 466-485 of the human hsp60 sequence (EIIKRTLKIPAMTIAKNAGV; UniProt P10809 466-485, looked up, fragment)”, for which the “peptide therapy for treatment of IDDM” value is recorded as “effective”. Turning to “p277: peptide corresponding to positions 437-460 of the human hsp 60 sequence (VLGGGCALLRCIPALDSLTPANED; UniProt P10809 437-460, looked up, fragment)”, the “peptide therapy for treatment of IDDM” value is “effective”.
